Source: patent US20250304623A1, “PEPTIDES FOR INTRACELLULAR DELIVERY” (UNIVERSIDADE DE SANTIAGO DE COMPOSTELA, priority 2022, published 2025)
*: point of attachment. NHNH2 = NN*

Columns and labels:
Format in all cases: cell-based
[1] = system: Hek293 cells expressing EGFP; experiment: EGFP-targeting siRNA delivery (GFP silencing vs siMOCK), Hek293
[2] = system: ARPE19 cells expressing EGFP; experiment: EGFP-targeting siRNA delivery (GFP silencing vs siMOCK), ARPE19
Summary of the method: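 This siRNA delivery assay used stably EGFP-expressing cells seeded a day ahead in 96-well plates. siGFP and amphiphile were combined in DMEM at a constant 30 nM siRNA, incubated 30 min at room temperature, then applied for 4 h before switching to fresh DMEM with 10% FBS. After 72 h, a plate reader measured fluorescence decrease relative to non-targeting siMOCK, subtracting untreated background.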

[3] = system: A549 cells expressing EGFP; experiment: EGFP-targeting siRNA delivery (GFP silencing vs siMOCK), A549; conditions: A549 cells
[4] = system: A549 cells expressing EGFP; experiment: Cas9-RNP delivery against EGFP (gene editing, plate reader), A549; conditions: A549 cells
Summary of the method: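 EGFP knockout by Cas9-RNP was assessed in EGFP-expressing A549 cells. crRNA and tracrRNA were annealed, combined with Cas9 protein (4 μM in DMEM), and mixed with amphiphile. Cells were washed with PBS and exposed to the complexes in DMEM for 4 h, then given DMEM with 10% FBS. Fluorescence reduction versus untreated cells was measured 72 h later, subtracting background.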

For “Ac-RRLK*RLLRRLK*RL-NH2 (Ac-RRLK(NHNH2)RLLRRLK(NHNH2)RL-NH2; not fully specified; printed as Ac-RRLK*RLLRRLK*RL-NH2; also: K*4,K*11: native or modified lysine (ε-amide to a linker)) [Peptide 13.2]”, the “percentage of GFP-silencing relative to siMOCK” value ([1]; Oleyl, 10 μM) was −7%, the “percentage of GFP-silencing relative to siMOCK” value ([1]; Oleyl, 15 μM) was 17% and the “percentage of GFP-silencing relative to siMOCK” value ([2]; Oleyl, 10 μM) was 22%. The “percentage of GFP-silencing relative to siMOCK” value ([2]; Oleyl, 15 μM) was 1%, the “percentage of GFP-silencing relative to siMOCK” value ([3]; Oleyl, 5 μM) was 19% and the “percentage of GFP-silencing relative to siMOCK” value ([3]; Oleyl, 10 μM) was −2%. The “percentage of GFP-silencing relative to siMOCK” value ([3]; Oleyl, 15 μM) was −21%, the “percentage of gene editing, GFP fluorescence intensity decrease (% of reduction)” value ([4]; Oleyl, 5 μM) was 10% and the “percentage of gene editing, GFP fluorescence intensity decrease (% of reduction)” value ([4]; Oleyl, 10 μM) was 12%. The “percentage of gene editing, GFP fluorescence intensity decrease (% of reduction)” value ([4]; Oleyl, 15 μM) was 4%.

For “Ac-RRLK*RLLRRLK*RLK*RRL-NH2 (Ac-RRLK(NHNH2)RLLRRLK(NHNH2)RLK(NHNH2)RRL-NH2; not fully specified; printed as Ac-RRLK*RLLRRLK*RLK*RRL-NH2; also: K*4,K*11,K*14: native or modified lysine (ε-amide to a linker)) [Peptide 17.3]”, the “percentage of GFP-silencing relative to siMOCK” value ([1]; Myristoleyl, 10 μM) was 48%, the “percentage of GFP-silencing relative to siMOCK” value ([1]; Oleyl, 15 μM) was 25% and the “percentage of GFP-silencing relative to siMOCK” value ([1]; Palmitoleyl, 10 μM) was 37%. The “percentage of GFP-silencing relative to siMOCK” value ([1]; Petroselinyl, 5 μM) was 9%, the “percentage of GFP-silencing relative to siMOCK” value ([1]; Petroselinyl, 15 μM) was 52% and the “percentage of GFP-silencing relative to siMOCK” value ([2]; Dodecanal, 5 μM) was 29%. For the same substance, the “percentage of GFP-silencing relative to siMOCK” value ([2]; Dodecanal, 10 μM) was 14%, the “percentage of GFP-silencing relative to siMOCK” value ([2]; Dodecanal, 15 μM) was 22% and the “percentage of GFP-silencing relative to siMOCK” value ([2]; Myristoleyl, 5 μM) was 43%. The “percentage of GFP-silencing relative to siMOCK” value ([2]; Myristoleyl, 15 μM) was −5%, the “percentage of GFP-silencing relative to siMOCK” value ([2]; Oleyl, 10 μM) was 22% and the “percentage of GFP-silencing relative to siMOCK” value ([2]; Palmitoleyl, 5 μM) was 36%. For the same substance, the “percentage of GFP-silencing relative to siMOCK” value ([2]; Palmitoleyl, 10 μM) was 24%, the “percentage of GFP-silencing relative to siMOCK” value ([2]; Palmitoleyl, 15 μM) was −4% and the “percentage of GFP-silencing relative to siMOCK” value ([2]; Petroselinyl, 5 μM) was 36%. For the same substance, the “percentage of GFP-silencing relative to siMOCK” value ([2]; Petroselinyl, 10 μM) was 20%, the “percentage of GFP-silencing relative to siMOCK” value ([3]; Dodecanal, 5 μM) was 25% and the “percentage of GFP-silencing relative to siMOCK” value ([3]; Dodecanal, 10 μM) was 4%. The “percentage of GFP-silencing relative to siMOCK” value ([3]; Myristoleyl, 5 μM) was 24%, the “percentage of GFP-silencing relative to siMOCK” value ([3]; Myristoleyl, 10 μM) was 8% and the “percentage of GFP-silencing relative to siMOCK” value ([3]; Myristoleyl, 15 μM) was 6%. For the same substance, the “percentage of gene editing, GFP fluorescence intensity decrease (% of reduction)” value ([4]; Dodecanal, 10 μM) was 75%, the “percentage of gene editing, GFP fluorescence intensity decrease (% of reduction)” value ([4]; Dodecanal, 15 μM) was 34% and the “percentage of gene editing, GFP fluorescence intensity decrease (% of reduction)” value ([4]; Myristoleyl, 5 μM) was 17%. For the same substance, the “percentage of gene editing, GFP fluorescence intensity decrease (% of reduction)” value ([4]; Oleyl, 10 μM) was 72%, the “percentage of gene editing, GFP fluorescence intensity decrease (% of reduction)” value ([4]; Oleyl, 15 μM) was 34% and the “percentage of gene editing, GFP fluorescence intensity decrease (% of reduction)” value ([4]; Palmitoleyl, 5 μM) was 17%. For the same substance, the “percentage of gene editing, GFP fluorescence intensity decrease (% of reduction)” value ([4]; Palmitoleyl, 10 μM) was 60%, the “percentage of gene editing, GFP fluorescence intensity decrease (% of reduction)” value ([4]; Palmitoleyl, 15 μM) was 72% and the “percentage of gene editing, GFP fluorescence intensity decrease (% of reduction)” value ([4]; Petroselinyl, 5 μM) was 23%. The “percentage of gene editing, GFP fluorescence intensity decrease (% of reduction)” value ([4]; Petroselinyl, 15 μM) was 66%.
